Assay results reported in patent US20100143897A1, “Materials and Methods for Assaying for Glyoxylate” (University of South Florida, priority 2005, published 2010).

Tested on: peptidylglycine α-amidating monooxygenase (PAM)
Assay: PAM treatment of hippurate: benzamide by HPLC, glyoxylate by malate synthase/malate dehydrogenase/MTS/PMS system
Format: biochemical
Conditions: PAM added to hippurate
Experimental: Spectrophotometric enzyme-linked assays for glyoxylate were initiated by the addition of malate synthase and malate dehydrogenase. […] The absorbance at 490 nm was measured after one hour incubation at 37° C. in the dark. The small amount of MTS reduced for the zero glyoxylate control was subtracted from that obtained in the presence of glyoxylate. Hippurate (N-benzoylglycine, C6H5—CO—NH—CH2—COO^−) is a PAM substrate that is oxidatively converted to benzamide and glyoxylate. […] At 10 min intervals over a period of 110 minutes, 45 μl aliquots were removed and added to 10 μl of 6% (v/v) trifluoroacetic acid to terminate the reaction. Percent conversion of hippurate to benzamide was determined at each time interval by reverse-phase HPLC. […] Following ascorbate removal the addition of 100 ul enzyme couple and PMS/MTS brought the assay to a final volume of 1 ml which contained 100 mM TEA-HCl pH 7.8, 10 mM MgCl2, 400 μM acetyl-CoA, 500 μM NAD^+, 6 U/ml malate synthase, 6 U/ml malate dehydrogenase, and 12 units ascorbate oxidase. […] A control for this experiment was performed at each time point, and contained no hippurate.

- Benzamide Produced (Time 40): 0.58 mM
- Glyoxylate Produced (Time 40): 0.69 mM
- Benzamide Produced (Time 50): 0.70 mM
- Glyoxylate Produced (Time 50): 0.67 mM
- Benzamide Produced (Time 60): 0.80 mM
- Glyoxylate Produced (Time 60): 0.71 mM
- Benzamide Produced (Time 70): 0.90 mM
- Glyoxylate Produced (Time 70): 0.75 mM
- Benzamide Produced (Time 80): 0.98 mM
- Glyoxylate Produced (Time 80): 0.77 mM
- Benzamide Produced (Time 90): 1.1 mM
- Glyoxylate Produced (Time 90): 1.3 mM
- Benzamide Produced (Time 100): 1.2 mM
- Glyoxylate Produced (Time 100): 1.3 mM
- Benzamide Produced (Time 110): 1.3 mM
- Glyoxylate Produced (Time 110): 1.3 mM
SMILES: O=C(O)CNC(=O)c1ccccc1 [Hippurate, N-benzoylglycine]
